According to BindingDB's records for doi:10.1016/j.bmcl.2009.08.023 (Roche Palo Alto, 2009):

Target: Genome polyprotein (Hepatitis C virus genotype 1b (isolate Con1), UniProt Q9WMX2)
Assay: Inhibition of […] 1b con1 NS5B polymerase assessed as [3H]UTP incorporation into acid insoluble RNA product

Sequence of Genome polyprotein (Q9WMX2 2420-3010 limits assumed): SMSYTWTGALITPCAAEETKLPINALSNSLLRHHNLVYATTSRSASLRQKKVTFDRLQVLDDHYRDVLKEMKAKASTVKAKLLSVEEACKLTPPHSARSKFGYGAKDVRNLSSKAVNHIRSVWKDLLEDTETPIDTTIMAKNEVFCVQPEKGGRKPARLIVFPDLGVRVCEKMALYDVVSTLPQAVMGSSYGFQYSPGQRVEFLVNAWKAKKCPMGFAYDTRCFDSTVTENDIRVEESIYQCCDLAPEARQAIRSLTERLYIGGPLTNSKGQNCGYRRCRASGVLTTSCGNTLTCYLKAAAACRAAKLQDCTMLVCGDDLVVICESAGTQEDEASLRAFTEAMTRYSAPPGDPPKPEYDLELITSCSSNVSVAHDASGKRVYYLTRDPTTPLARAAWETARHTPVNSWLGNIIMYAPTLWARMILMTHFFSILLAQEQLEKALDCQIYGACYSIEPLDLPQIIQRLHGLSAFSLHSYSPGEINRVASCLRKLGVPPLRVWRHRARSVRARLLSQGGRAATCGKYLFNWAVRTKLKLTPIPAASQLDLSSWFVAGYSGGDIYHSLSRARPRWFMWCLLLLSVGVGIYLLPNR

Row | IC50 | Compound
1 | 13 nM | CC(C)(C)[C@H]1C(=O)C(C2=Nc3ccc(NS(C)(=O)=O)cc3S(=O)(=O)C2)C(=O)N1Cc1ccc(F)cc1F (stereo partly drawn) [N-{3-[(S)-5-tert-Butyl-1-(2,4-difluoro-benzyl)-4-hydroxy-2-oxo-2,5-dihydro-1H-pyrrol-3-yl]-1,1-dioxo-1,4-dihydro-1lambda*6*-benzo[1,4]thiazin-7-yl}-methanesulfonamide]
2 | 8 nM | CC(C)(C)[C@H]1C(=O)C(C2=Nc3ccc(NS(C)(=O)=O)cc3S(=O)(=O)C2)C(=O)N1Cc1ccccc1 (stereo partly drawn) [N-[3-((S)-1-Benzyl-5-tert-butyl-4-hydroxy-2-oxo-2,5-dihydro-1H-pyrrol-3-yl)-1,1-dioxo-1,4-dihydro-1lambda*6*-benzo[1,4]thiazin-7-yl]-methanesulfonamide]
3 | 5 nM | CC(C)CCN1C(=O)C(C2=Nc3ccc(NS(C)(=O)=O)cc3S(=O)(=O)C2)C(=O)[C@@H]1C(C)(C)C (stereo partly drawn) [N-{3-[(S)-5-tert-Butyl-4-hydroxy-1-(3-methyl-butyl)-2-oxo-2,5-dihydro-1H-pyrrol-3-yl]-1,1-dioxo-1,4-dihydro-1lambda*6*-benzo[1,4]thiazin-7-yl}-methanesulfonamide]
4 | 8 nM | CC(C)(C)CCN1C(=O)C(C2=Nc3ccc(NS(C)(=O)=O)cc3S(=O)(=O)C2)C(=O)[C@@H]1C(C)(C)C (stereo partly drawn) [N-{3-[(S)-5-tert-Butyl-1-(3,3-dimethyl-butyl)-4-hydroxy-2-oxo-2,5-dihydro-1H-pyrrol-3-yl]-1,1-dioxo-1,4-dihydro-1lambda*6*-benzo[1,4]thiazin-7-yl}-methanesulfonamide]
5 | 5 nM | CC(C)(C)[C@H]1C(=O)C(C2=Nc3ccc(NS(C)(=O)=O)cc3S(=O)(=O)C2)C(=O)N1Cc1ccc(F)c(Cl)c1 (stereo partly drawn) [N-{3-[(S)-5-tert-Butyl-1-(3-chloro-4-fluoro-benzyl)-4-hydroxy-2-oxo-2,5-dihydro-1H-pyrrol-3-yl]-1,1-dioxo-1,4-dihydro-1lambda*6*-benzo[1,4]thiazin-7-yl}-methanesulfonamide]
6 | 4 nM | COc1cc(CN2C(=O)C(C3=Nc4ccc(NS(C)(=O)=O)cc4S(=O)(=O)C3)C(=O)[C@@H]2C(C)(C)C)ccc1F (stereo partly drawn) [N-{3-[(S)-5-tert-Butyl-1-(4-fluoro-3-methoxy-benzyl)-4-hydroxy-2-oxo-2,5-dihydro-1H-pyrrol-3-yl]-1,1-dioxo-1,4-dihydro-1lambda*6*-benzo[1,4]thiazin-7-yl}-methanesulfonamide]
7 | 4 nM | CC(=O)C1C(C2C(=O)[C@H](C(C)(C)C)N(Cc3ccc(F)cc3)C2=O)=Nc2ccc(NS(C)(=O)=O)cc2S1(=O)=O (stereo partly drawn) [N-{2-Acetyl-3-[(S)-5-tert-butyl-1-(4-fluoro-benzyl)-4-hydroxy-2-oxo-2,5-dihydro-1H-pyrrol-3-yl]-1,1-dioxo-1,4-dihydro-1lambda*6*-benzo[1,4]thiazin-7-yl}-methanesulfonamide]
